Experiments:
[1] = type: physicochemical
Procedure: The following solubility data was generated and referenced in one or more of the prior examples. A mixture of approx. 2 g of maribavir and 5 mL solvent was stirred overnight in sealed vials at different temperatures. The clear supernatant solutions were sampled for […] assay. All examples were done in triplicates. Table 3-5. Maribavir solubilities in iPrOAc and toluene.

[2] = Stability data of process systems (Example 3-23); type: physicochemical; conditions: 7 days
Procedure: The following stability data was generated and referenced in one or more of the prior examples. Stability of the following systems were studied and found to be stable for at least 7 days: Stability of Compound 3 HCl in MeOH/TBME at 40° C.; Stability of reaction mixture at 40° C. (amount of maribavir); Stability of biphasic mixture at 40° C. (before extraction); Stability of biphasic mixture at 40° C. (during last NaCl washing); Stability of reaction mixture after final distillation step at Stability of biphasic mixture at 75° C.; Stability of reaction mixture after final distillation step at 90° C.; Stability of crystallization mixture after dosage of 2nd portion of toluene at reflux; Stability of crystallization at 20° C.; Stability of mixture during slurry wash at 20-25° C.; Stability of maribavir in the mother liquor at 20-25° C.; Stability of wet cake at 70° C.; and Stability of dry cake at 70° C.

[3] = type: physicochemical; conditions: pH 4
Source text: A preliminary test was done to determine the lower pH to be tested: Three samples of the biphasic mixture during 1st NaCl-wash was taken and adjusted separately to pH 4, 5, and 6. These samples were refluxed overnight and sampled for HPLC purity at different time points. […] It was observed that at lower pH values, some white precipitate occurred. This precipitate dissolved upon raising the pH with NaOH. It was assumed that this was the hydrochloride salt of maribavir. Upon further review, at pH<5.5, the precipitate occurred. Therefore, the lowest pH tested was 6. The distilled reaction mixtures were subjected to crystallization on a 400 ml Easymax scale.

For `CC(C)Nc1nc2cc(Cl)c(Cl)cc2n1[C@H]1O[C@@H](CO)[C@H](O)[C@@H]1O` [Maribavir, (2S,3S,4R,5S)-2-(5,6-dichloro-2-(isopropylamino)-1H-benzo[d]imidazol-1-yl)-5-(hydroxymethyl)tetrahydrofuran-3,4-diol], the “Solubility in iPrOAc (in words)” value [1] was “good solubility”, the “Stability (time found stable)” value [2] was “at least 7 days” and the “Stability by HPLC purity (in words)” value [3] was “perfect stability”.

— patent US12295940B2, “Viral inhibitors, the synthesis thereof, and intermediates thereto” (Takeda Pharmaceutical Company Limited, priority 2022, dated 2025)
